Experiments:
[1] = Body and adipose tissue weight of CL316,243-treated mice (trial 2, FIG. 3); format: in vivo
Source text: FIG. 3 is a pair of bar graphs showing the body (FIG. 3a) and adipose (FIG. 3b) weights of mice treated with CL316,243 (hatched bars), and corresponding controls(solid bars).
In trial 2, male, inbred NON mice were fed a control with or without the presence of the β-3 adrenergic agonist CL316,243 for four weeks (at 0.001% CL316,243 by weight in the dietary chow).
In both studies, five treated and five control mice were used. Following the treatments and the killing of the mice, tissues and plasma were taken, chilled to −80 ° C. and shipped to the analysis laboratory at Lipomics Technologies in a frozen state.
Tables 7 and 8 show the concentrations of lipid metabolites present in adipose, plasma, heart and liver tissues in mice treated with CL3 16,243 and their controls. In Tables 5 and 7, the data are expressed as nanomoles per gram of tissue or plasma. In tables 6 and 8, the data are expressed as a percentage of total fatty acids within each lipid class.

[2] = patients taking rosiglitazone; Fuchtenbebusch et al. 2000; cited from earlier work

Row | Structure (SMILES) | mouse body weight ([1]; CL316,243 4 weeks vs controls (FIG. 3a)) | adipose tissue weight ([1]; CL316,243 4 weeks vs controls (FIG. 3b)) | body weight of patients [2]
1 | C[C@H](Cc1ccc2c(c1)OC(C(=O)[O-])(C(=O)[O-])O2)NC[C@H](O)c1cccc(Cl)c1.[Na+].[Na+] [CL316,243] | significant decrease | significant decrease | –
2 | CN(CCOc1ccc(CC2SC(=O)NC2=O)cc1)c1ccccn1 (stereo not drawn) [rosiglitazone] | – | – | gain weight

Reference: patent US20050009005A1, “Methods of using quantitative lipid metabolome data” (Lipomics Technologies, Inc., priority 2001, published 2005)
